Reference: ChEMBL document CHEMBL4507268 (2021)
The source made the active and inactive calls. The rule behind the calls is not given here.

What was measured:
[1] = molecular target: T1, Aurora kinase A (Homo sapiens) (UniProt O14965); conditions: Compound concentration 1000.0 nM
T1 sequence (whole entry): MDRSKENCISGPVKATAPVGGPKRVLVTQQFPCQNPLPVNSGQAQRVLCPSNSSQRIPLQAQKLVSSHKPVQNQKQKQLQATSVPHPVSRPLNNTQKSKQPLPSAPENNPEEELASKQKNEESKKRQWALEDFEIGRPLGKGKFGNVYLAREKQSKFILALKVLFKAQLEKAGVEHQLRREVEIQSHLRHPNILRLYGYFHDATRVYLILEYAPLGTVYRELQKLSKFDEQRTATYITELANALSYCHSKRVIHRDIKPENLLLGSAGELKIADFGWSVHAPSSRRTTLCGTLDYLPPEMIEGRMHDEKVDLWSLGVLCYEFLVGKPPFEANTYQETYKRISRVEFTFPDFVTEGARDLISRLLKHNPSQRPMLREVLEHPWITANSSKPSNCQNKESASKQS

[2] = molecular target: LIM domain kinase 2 (Homo sapiens) (UniProt P53671); conditions: Compound concentration 1000.0 nM
Sequence of LIM domain kinase 2 (Homo sapiens) (P53671 whole entry, looked up, the tested form may be a part): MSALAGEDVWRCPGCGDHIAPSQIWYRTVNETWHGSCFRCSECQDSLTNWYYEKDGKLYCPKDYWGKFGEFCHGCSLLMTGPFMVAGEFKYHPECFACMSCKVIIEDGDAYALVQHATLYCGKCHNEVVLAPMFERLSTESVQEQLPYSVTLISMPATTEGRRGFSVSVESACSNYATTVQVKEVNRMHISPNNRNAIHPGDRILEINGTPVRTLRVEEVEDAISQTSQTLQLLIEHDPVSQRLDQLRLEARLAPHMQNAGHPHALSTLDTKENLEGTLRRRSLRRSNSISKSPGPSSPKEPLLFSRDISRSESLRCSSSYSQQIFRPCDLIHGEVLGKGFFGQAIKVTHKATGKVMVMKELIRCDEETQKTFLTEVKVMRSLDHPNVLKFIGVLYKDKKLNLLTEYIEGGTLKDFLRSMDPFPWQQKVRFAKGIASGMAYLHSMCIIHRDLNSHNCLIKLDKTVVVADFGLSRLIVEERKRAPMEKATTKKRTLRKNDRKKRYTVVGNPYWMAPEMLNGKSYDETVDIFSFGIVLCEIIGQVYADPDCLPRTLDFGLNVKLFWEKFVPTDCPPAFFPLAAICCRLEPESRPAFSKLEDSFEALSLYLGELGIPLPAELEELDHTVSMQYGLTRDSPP

[3] = test system: Tyrosine-protein kinase ABL1 (Homo sapiens), P00519 [T315I]; conditions: Compound concentration 1000.0 nM
[4] = molecular target: Solute carrier family 2, facilitated glucose transporter member 1 (Homo sapiens, UniProt P11166); experiment: Cellular mechanistic assay: Inhibition of glucose uptake by Hela-MaTu cells
Sequence of Solute carrier family 2, facilitated glucose transporter member 1 (P11166 whole entry): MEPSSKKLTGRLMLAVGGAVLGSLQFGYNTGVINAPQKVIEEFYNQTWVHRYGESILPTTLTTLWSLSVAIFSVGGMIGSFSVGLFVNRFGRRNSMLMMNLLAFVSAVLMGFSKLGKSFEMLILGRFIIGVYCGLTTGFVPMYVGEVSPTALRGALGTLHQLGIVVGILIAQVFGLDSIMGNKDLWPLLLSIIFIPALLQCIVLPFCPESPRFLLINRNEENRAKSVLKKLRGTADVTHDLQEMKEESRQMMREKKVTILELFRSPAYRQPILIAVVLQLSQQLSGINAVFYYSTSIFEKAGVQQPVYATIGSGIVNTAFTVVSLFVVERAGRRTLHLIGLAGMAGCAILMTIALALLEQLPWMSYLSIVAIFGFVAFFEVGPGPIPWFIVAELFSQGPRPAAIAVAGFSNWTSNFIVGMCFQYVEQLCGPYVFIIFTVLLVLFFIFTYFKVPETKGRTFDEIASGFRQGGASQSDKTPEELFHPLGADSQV

[5] = molecular target: T2, Serine/threonine-protein kinase D1 (Homo sapiens) (UniProt Q15139); conditions: Compound concentration 1000.0 nM
T2 sequence (whole entry): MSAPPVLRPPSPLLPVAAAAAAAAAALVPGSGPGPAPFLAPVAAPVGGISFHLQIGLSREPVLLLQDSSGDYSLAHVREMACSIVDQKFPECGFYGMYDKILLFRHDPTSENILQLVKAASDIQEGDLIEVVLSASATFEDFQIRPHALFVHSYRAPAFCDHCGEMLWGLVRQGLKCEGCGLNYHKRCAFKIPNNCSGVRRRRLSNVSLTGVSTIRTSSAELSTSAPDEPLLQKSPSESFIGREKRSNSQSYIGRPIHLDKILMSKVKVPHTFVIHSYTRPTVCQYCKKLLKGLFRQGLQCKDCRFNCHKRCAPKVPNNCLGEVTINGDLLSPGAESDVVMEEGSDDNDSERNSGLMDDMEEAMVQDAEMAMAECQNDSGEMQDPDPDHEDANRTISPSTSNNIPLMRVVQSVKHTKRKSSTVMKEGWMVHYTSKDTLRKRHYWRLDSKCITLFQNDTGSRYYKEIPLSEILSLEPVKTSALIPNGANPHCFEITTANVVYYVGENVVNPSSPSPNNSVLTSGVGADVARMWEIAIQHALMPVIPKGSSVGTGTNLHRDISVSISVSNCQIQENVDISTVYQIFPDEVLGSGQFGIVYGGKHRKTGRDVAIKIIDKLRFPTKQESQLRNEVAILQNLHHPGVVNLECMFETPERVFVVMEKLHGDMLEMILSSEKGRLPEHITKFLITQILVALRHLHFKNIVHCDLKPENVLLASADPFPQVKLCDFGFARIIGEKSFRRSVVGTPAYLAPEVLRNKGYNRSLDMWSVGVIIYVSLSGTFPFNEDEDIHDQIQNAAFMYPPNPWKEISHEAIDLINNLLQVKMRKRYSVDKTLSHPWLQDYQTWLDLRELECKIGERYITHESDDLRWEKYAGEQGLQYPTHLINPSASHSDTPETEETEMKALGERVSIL

[6] = molecular target: Serine/threonine-protein kinase RIO2 (Homo sapiens) (UniProt Q9BVS4); conditions: Compound concentration 1000.0 nM
Sequence of Serine/threonine-protein kinase RIO2 (Homo sapiens) (Q9BVS4 whole entry, looked up): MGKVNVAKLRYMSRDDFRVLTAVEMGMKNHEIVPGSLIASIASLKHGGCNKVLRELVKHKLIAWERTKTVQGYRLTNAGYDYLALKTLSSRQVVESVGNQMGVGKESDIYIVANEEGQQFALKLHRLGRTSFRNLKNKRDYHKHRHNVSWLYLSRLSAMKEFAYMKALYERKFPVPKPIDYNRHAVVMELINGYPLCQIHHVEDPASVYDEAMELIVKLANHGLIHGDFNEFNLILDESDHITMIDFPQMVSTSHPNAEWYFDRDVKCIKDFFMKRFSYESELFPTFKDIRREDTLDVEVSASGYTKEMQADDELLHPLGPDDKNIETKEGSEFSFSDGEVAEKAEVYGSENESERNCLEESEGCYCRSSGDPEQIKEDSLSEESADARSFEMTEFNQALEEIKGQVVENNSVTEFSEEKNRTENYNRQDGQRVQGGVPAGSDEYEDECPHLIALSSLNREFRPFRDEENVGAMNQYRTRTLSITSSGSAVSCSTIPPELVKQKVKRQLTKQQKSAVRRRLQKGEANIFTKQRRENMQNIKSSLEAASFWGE

[7] = molecular target: Dual specificity protein kinase CLK1 (Homo sapiens) (UniProt P49759); conditions: Compound concentration 1000.0 nM
Sequence of Dual specificity protein kinase CLK1 (Homo sapiens) (P49759 whole entry, looked up): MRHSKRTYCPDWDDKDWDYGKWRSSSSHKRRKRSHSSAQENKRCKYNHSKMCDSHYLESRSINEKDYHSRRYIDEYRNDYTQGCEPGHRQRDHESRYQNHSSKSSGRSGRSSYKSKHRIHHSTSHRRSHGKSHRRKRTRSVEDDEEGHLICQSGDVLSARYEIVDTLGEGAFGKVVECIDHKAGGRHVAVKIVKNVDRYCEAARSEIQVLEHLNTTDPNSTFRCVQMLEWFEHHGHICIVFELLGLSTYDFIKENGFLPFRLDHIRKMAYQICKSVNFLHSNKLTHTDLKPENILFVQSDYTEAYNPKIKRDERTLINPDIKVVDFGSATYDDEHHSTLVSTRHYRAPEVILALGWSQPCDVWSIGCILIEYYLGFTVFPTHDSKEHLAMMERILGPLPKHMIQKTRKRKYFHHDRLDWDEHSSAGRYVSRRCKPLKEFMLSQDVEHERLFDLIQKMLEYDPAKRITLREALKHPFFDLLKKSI

[8] = molecular target: T3, Dual specificity protein kinase TTK (Homo sapiens) (UniProt P33981); conditions: Compound concentration 1000.0 nM
T3 sequence (whole entry): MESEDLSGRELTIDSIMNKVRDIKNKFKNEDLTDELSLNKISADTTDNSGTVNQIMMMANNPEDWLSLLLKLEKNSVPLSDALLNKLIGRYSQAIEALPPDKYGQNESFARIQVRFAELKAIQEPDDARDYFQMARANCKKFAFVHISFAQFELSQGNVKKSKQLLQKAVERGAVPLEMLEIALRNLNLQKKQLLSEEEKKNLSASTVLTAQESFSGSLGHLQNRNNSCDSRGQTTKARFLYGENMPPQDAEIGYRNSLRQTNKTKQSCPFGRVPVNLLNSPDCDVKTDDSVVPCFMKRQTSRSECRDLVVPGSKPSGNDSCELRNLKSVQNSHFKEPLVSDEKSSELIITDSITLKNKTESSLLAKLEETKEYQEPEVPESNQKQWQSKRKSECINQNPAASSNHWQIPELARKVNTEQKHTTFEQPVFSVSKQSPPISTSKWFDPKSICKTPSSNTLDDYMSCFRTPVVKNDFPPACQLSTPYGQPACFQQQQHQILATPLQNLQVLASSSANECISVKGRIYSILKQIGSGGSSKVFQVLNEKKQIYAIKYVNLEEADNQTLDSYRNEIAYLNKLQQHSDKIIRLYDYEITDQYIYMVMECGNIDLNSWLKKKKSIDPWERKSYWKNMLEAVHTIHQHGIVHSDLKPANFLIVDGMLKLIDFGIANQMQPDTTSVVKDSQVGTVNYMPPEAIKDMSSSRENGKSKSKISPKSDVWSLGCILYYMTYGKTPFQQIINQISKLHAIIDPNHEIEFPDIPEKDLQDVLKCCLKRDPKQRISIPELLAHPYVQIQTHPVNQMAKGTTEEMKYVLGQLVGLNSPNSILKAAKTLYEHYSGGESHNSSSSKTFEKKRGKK

[9] = molecular target: Tyrosine-protein kinase receptor UFO (Homo sapiens) (UniProt P30530); conditions: Compound concentration 1000.0 nM
Sequence of Tyrosine-protein kinase receptor UFO (Homo sapiens) (P30530 whole entry): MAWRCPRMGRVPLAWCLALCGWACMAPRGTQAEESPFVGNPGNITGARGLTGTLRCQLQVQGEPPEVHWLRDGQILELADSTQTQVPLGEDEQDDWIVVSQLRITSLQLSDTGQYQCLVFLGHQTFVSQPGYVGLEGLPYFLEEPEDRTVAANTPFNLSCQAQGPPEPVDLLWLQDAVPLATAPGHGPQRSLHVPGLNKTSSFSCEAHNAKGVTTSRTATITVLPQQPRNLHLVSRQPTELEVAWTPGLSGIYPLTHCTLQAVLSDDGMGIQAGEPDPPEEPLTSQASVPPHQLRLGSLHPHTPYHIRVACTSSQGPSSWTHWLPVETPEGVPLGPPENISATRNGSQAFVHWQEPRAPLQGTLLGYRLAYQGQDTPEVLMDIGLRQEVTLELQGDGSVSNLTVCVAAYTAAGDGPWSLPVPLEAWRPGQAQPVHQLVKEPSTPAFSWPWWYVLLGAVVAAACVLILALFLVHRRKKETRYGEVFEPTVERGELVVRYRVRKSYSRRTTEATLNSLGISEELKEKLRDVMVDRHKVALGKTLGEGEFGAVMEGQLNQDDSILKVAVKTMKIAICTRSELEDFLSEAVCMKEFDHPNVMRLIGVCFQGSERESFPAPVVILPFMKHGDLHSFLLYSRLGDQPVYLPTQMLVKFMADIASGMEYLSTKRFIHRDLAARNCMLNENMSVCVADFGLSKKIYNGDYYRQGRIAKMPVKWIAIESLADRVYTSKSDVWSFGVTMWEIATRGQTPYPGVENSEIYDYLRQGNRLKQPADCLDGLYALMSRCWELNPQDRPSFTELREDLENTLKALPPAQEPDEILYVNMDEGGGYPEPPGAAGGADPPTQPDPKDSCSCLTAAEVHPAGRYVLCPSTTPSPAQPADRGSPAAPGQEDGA

[10] = molecular target: Phosphatidylinositol 3-kinase catalytic subunit type 3 (Homo sapiens) (UniProt Q8NEB9); conditions: Compound concentration 1000.0 nM
Sequence of Phosphatidylinositol 3-kinase catalytic subunit type 3 (Homo sapiens) (Q8NEB9 whole entry): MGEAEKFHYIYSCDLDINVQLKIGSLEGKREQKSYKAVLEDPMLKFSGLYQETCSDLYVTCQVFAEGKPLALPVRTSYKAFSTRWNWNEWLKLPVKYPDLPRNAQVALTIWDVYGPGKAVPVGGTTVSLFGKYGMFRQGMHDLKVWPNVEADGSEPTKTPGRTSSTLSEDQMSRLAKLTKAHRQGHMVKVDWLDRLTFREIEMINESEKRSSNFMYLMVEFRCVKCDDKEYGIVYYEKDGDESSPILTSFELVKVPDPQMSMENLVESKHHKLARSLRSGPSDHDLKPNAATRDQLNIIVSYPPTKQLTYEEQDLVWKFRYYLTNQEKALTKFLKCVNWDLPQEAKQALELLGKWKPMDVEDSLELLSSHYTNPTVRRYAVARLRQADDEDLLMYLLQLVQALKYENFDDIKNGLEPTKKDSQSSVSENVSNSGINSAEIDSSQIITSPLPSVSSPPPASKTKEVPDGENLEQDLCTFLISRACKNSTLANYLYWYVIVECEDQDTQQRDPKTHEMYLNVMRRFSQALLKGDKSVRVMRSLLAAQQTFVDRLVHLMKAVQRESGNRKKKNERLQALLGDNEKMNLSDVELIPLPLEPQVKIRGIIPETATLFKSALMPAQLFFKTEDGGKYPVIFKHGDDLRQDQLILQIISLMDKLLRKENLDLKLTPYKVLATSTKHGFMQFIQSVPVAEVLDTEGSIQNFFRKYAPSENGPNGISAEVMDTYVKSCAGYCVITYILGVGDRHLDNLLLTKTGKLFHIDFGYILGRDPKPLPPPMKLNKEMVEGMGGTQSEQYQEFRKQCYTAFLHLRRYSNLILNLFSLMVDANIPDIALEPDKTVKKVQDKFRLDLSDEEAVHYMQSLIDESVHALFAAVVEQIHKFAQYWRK

[11] = molecular target: D(1B) dopamine receptor (Homo sapiens) (UniProt P21918); conditions: Compound concentration 10.0 uM
Sequence of D(1B) dopamine receptor (Homo sapiens) (P21918 whole entry): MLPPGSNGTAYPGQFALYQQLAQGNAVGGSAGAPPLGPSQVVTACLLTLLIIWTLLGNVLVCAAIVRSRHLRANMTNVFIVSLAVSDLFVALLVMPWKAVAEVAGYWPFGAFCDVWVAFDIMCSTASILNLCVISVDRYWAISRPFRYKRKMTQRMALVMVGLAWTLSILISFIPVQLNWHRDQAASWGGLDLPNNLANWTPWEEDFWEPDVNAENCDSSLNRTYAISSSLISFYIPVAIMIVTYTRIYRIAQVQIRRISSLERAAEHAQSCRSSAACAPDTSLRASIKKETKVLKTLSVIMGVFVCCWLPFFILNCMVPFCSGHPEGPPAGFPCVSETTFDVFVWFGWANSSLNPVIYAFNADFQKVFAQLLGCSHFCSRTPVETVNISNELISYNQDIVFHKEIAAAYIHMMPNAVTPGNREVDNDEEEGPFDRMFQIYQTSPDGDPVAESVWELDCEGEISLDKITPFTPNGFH

With `Cc1nc(C2CCN(C(=O)c3ccc(OC(F)(F)F)cc3N)CC2)c2ncc(N3CCN(C)CC3)cc2n1` [BAY-693] as the compound, how does the residual activity [1] read?
Its residual activity is 99%.

And the residual activity [2]?
Its residual activity is 95%.

And the residual activity [3]?
Its residual activity is 100%.

And the IC50 [4]?
Its IC50 is 6.4 µM (not active).

And the residual activity [5]?
Its residual activity is 79%.

What about the residual activity [6] of the same compound?
Its residual activity is 100%.

And the residual activity [7]?
Its residual activity is 100%.

And the residual activity [8]?
Its residual activity is 100%.

And the residual activity [9]?
Its residual activity is 100%.

What about the residual activity [10] of the same compound?
Its residual activity is 95%.

What about the inhibition [11] of the same compound?
Its inhibition is 12.4%.

What does the source list for `CN1CCN(c2cnc3c(C4CCN(C(=O)c5ccc(OC(F)(F)F)cc5N)CC4)ncnc3c2)CC1` [BAY-885]?
residual activity [1]: 100%; residual activity [2]: 100%; residual activity [3]: 100%; IC50 [4]: 0.035 µM (active); residual activity [5]: 85%; residual activity [6]: 100%; residual activity [7]: 100%; residual activity [8]: 100%; residual activity [9]: 78%; residual activity [10]: 100%; inhibition [11]: 4.63%
